Assays:
Format in all cases: in vivo
Ach = test: KONZETT DATA, Ach; settings: spasmogen Ach
Hist = test: KONZETT DATA, Hist; settings: spasmogen Hist
5-HT = test: KONZETT DATA, 5-HT; settings: spasmogen 5-HT

CCCCCC(C)(O)/C=C/C1C(O)CC(=O)C1C/C=C\CCCCO (racemic) [dl-1,11,15-trihydroxymethyl-9-oxo-15-methyl-5-cis-13-trans prostadiene]
Ach (ED50 g/kg) (Ach): 0.0043 g/kg
Hist (ED50 g/kg) (Hist): 0.00075 g/kg
5-HT (ED50 g/kg) (5-HT): 0.0083 g/kg

Source: patent US4288629A, “1-Hydroxymethyl-11-deoxy-15-hydroxy-prosten-1-ol-derivatives” (American Cyanamid Company, priority 1980, dated 1981)
